The source of these data is patent publication US20130109726A1, “SUSTAINED-RELEASE THERAPEUTIC AGENT FOR HYPERTENSION AND RENAL DYSFUNCTION” (TEIJIN PHARMA LIMITED, priority 2010, published 2013).

Each structure is given as a SMILES string.

The test system of assay [1] is adriamycin-induced nephropathy mouse model. In words: Urine albumin excretion in adriamycin-induced nephropathy mouse model. The class given is in vivo. The procedure:
The effects of the immediate-release and sustained-release administrations of febuxostat in an adriamycin-induced nephropathy mouse model were ascertained. The adriamycin-induced nephropathy model is known as a renal dysfunction model in which lesions occur in glomerular epithelial cells and proteinuria is observed.
Male BALB/cAnNCrlCrlj mice aged 7 weeks were subjected to quarantine for a week or more before used as subjects.
At 8 weeks of age, a 24-hour urine collection was performed and the concentration of albumin in the collected urine was measured by ELISA. The subjects were divided into three groups, such that the amounts of albumin excretion were evenly distributed. Subsequently, the administrations were started. Group 1, a control group, was given tap water. Group 2 was given febuxostat in drinking water. Group 3 was given febuxostat by oral gavage.
The administration in drinking water was performed by giving the subjects access to an aqueous solution of febuxostat ad libitum. In this manner, prolonged drug exposure, i.e, sustained-release administration can be accomplished, as compared to a single oral administration. On the other hand, the oral administration was performed by giving a suspension of febuxostat in 0.5% MC solution by oral gavage via a tube. The blood level of the drug rapidly increases after the administration and diclines soon. Thus, immediate-release administration can be accomplished in this manner. Following the initiation of dosing on the first day, adriamycin was given to mice via tail vein at 10 mg/kg. Then, the administrations were conducted for 5 consecutive days. A 24-hour urine collection was performed 5 days after onset of drug administration and the amount of albumin in the collected urine was measured as previously described.

Assay [2] concerns spontaneously hypertensive rats (SHR). In words: Systolic blood pressure by Tail-Cuff method in spontaneous hypertension model (SHR). The class given is in vivo, rat. The procedure:
The effects of the immediate-release and sustained-release administrations of febuxostat in a spontaneous hypertension model were ascertained. Male spontaneously hypertensive rats (SHR) aged 12 weeks were subjected to quarantine for a week or more before used as subjects. From 13 weeks of age, habituation to blood pressure measurement with a Tail-Cuff sphygmomanometer (BP-2000, Visitech systems, Napa Place, N.C., USA) was performed for two weeks. At 15 weeks of age after the completion of the habituation, blood pressure was measured, and the subjects were divided into three groups (10 subjects in each group), such that the systolic blood pressures were evenly distributed. Subsequently, the administrations were started. Group 1, a control group, was given tap water. Group 2 was given febuxostat in drinking water. Group 3 was given febuxostat by oral gavage.
The administration in drinking water was performed by giving the subjects access to an aqueous solution of febuxostat ad libitum. In this manner, prolonged drug exposure to the blood, i.e, sustained-release administration can be accomplished, as compared to a single oral administration. On the other hand, the oral administration was performed by giving a suspension of febuxostat in 0.5% MC solution (with a concentration of febuxostat of 2 mg/mL) at 5 mL/kg by oral gavage. The blood level of the drug rapidly increases after the administration and diclines soon. Thus, immediate-release administration can be accomplished in this manner. After 18 days of administration, systolic blood pressure was measured by the Tail-Cuff method.

With `Cc1nc(-c2ccc(OCC(C)C)c(C#N)c2)sc1C(=O)O` [febuxostat, 2-(3-cyano-4-isobutyloxyphenyl)-4-methyl-5-thiazole carboxylic acid], the “Urine albumin excretion (mean±standard error)” value in assay [1] (Group 2, sustained-release administration, 3 mg/kg/day in drinking water, Day 0) is listed as 0.1 ± 0.1 mg/day; in assay [1] (Group 2, sustained-release administration, 3 mg/kg/day in drinking water, Day 5, adriamycin 10 mg/kg i.v.) it was 9.5 ± 3.9 mg/day; in assay [1] (Group 3, immediate-release administration, 3 mg/kg/day oral gavage, Day 0), 0.1 ± 0.1 mg/day; in assay [1] (Group 3, immediate-release administration, 3 mg/kg/day oral gavage, Day 5, adriamycin 10 mg/kg i.v.) it was 18.4 ± 9.7 mg/day. The “amelioration of renal dysfunction, sustained-release versus immediate-release administration” value in assay [1] (adriamycin-induced nephropathy mice, 5 days of administration) is “renal dysfunction was more effectively ameliorated by administering febuxostat in a sustained-manner”. For the same molecule, the “systolic blood pressure (mean±standard error)” value is on record as 199 ± 3 mmHg in assay [2] (Group 2, sustained-release administration, 1.5 mg/kg/day in drinking water, Day 18 of dosing); 203 ± 3 mmHg in assay [2] (Group 2, sustained-release administration, 1.5 mg/kg/day in drinking water, Pre-dose); 217 ± 3 mmHg in assay [2] (Group 3, immediate-release administration, 10 mg/kg/day oral gavage, Day 18 of dosing); 201 ± 4 mmHg in assay [2] (Group 3, immediate-release administration, 10 mg/kg/day oral gavage, Pre-dose). Further, the “blood pressure lowering, sustained-release versus immediate-release administration” value in assay [2] (SHR, 18 days of administration) is reported as “blood pressure was more strongly lowered by administering febuxostat in a sustained-release manner”.
